One series has as its target T1, PH domain of Akt protein (Homo sapiens, UniProt P31749).
T1 construct: His6 (C); made in house; host or cells: E. coli BL21 (DE3), pET28a vector
Put plainly: Protein-lipid binding assay (PIP-strips) with PH domain of Akt protein. The conditions noted are these: calcium 0, 0.05 or 0.1 mM. On the procedure:
E. coli BL21 (DE3) cells were transfected with a vector containing the PH domain of Akt protein, and the cells were cultured in 50 Ml of LB medium supplemented with 50 μg/Ml of kanamycin. The culture was performed at 37° C. for 8 hours. Upon completion of the culture, the cells were transferred into a 25° C. agitation incubator. The cells were cultured until OD600 reached 0.6 to 1.0, and then 1 mM IPTG (isopropyl-β-D-1-thiogalactopyranoside) was added thereto. 18 hours after the addition of IPTG, centrifugation was performed at 7,000×g at 4° C. for 10 minutes to obtain cells. Sonication equilibrium buffer (150 mM NaCl, 50 mM Tris-HCl, pH 7.6) was added to the obtained cells. The cells added with the sonication equilibrium buffer were lysed by sonication. The PH domain of Akt protein was purified from the cell lysate by […] using nickel-nitrilotriacetic acid and HiLoad Superdex-200 column (GE Healthcare life science, USA). The purity of the purified protein was examined by SDS-PAGE (sodium dodecyl sulfate polyacrylamide gel electrophoresis).
Particularly, the analysis was performed by using membrane-immobilized lipid strips (PIP-strips, Echelon Biosciences Inc., USA). […]

Series [1] has as its target T2, PH domain of the purified Akt protein (Homo sapiens, UniProt P31749).
T2 construct: His6 (C); made in house; host or cells: E. coli BL21 (DE3), pET28a vector
Put plainly: ITC of binding of PH domain of purified Akt protein to phospholipids. The conditions noted are these: increase of the calcium concentration. On the procedure:
(§1) Particularly, a protein solution was prepared by suspending a protein in 10 mM HEPES (pH 7.0). Phospholipid related ligand was titrated in the protein solution at 25° C. by using iTC200 micro calorimetry system (MicroCal Inc., USA), and the generated graph was corrected using Origin software (MicroCal Inc., USA). At this time, the phospholipid related ligand was prepared in the form of liposome by mixing POPC (1-palmitoyl-2-oleoyl-sn-glycero-3-phosphocholin) chloroform solution and POPS (1-palmitoyl-2-oleoyl-sn-glycero-3-phosphoserine), PI(3,4)P2 (1,2-dipalmotoyl-sn-glycero-3-phosphatidylinositol-3,4-[…]), PI(4,5)P2 (1,2-dipalmotoyl-sn-glycero-3-phosphatidylinositol-4,5-trisphosphate) or PI(3,4,5)P3 (1,2-dipalmotoyl-sn-glycero-3-phosphatidylinositol-3,4,5-trisphosphate) at the molar ratio of 80:20. The organic solvent was eliminated. The organic solvent was removed and a single layer lamellar was produced in HEPES (pH 7.0) using phospholipids.

Series [2] in a line: Protein-lipid binding assay with PKCβ protein C2 domain, PI(4,5)P2. The conditions noted are these: calcium 0, 0.05 or 0.1 mM. On the procedure: (§2) Particularly, the analysis was performed by using membrane-immobilized lipid strips (PIP-strips, Echelon Biosciences Inc., USA). At this time, the membrane was loaded with LPA (lysophosphatidic acid), LPC (lysophosphatidylcholine), PI (phosphatidylinositol), PE (phosphatidylethanolamine), PC (phosphatidylcholine), S1P (sphingosine 1-phosphate), PA (phosphatidic acid) or PS (phosphatidylserine) at the concentration of 100 pmol, to which calcium was added at the concentration of 0, 0.05 or 0.1 mM. Each membrane was pre-treated with a blocking buffer [fatty acid free 3% BSA (bovine serum albumin), 0.1% (v/v) Tween 20 and TBS (Tris-buffered saline), pH 7.5] at room temperature for 30 minutes. The PH domain of Akt protein purified in Example <7-1> was suspended in a blocking buffer at the concentration of 3.5 mg/Ml. The suspended protein was reacted with the membrane-immobilized lipid strip at room temperature for 30 minutes. The protein bound with lipid was identified by using the PH domain antibody.
(§3) To investigate whether or not the binding of the PKCβ protein C2 domain purified in Example <8-1> to PI(4,5)P2 or PI(3,4,5)P3 was inhibited by calcium, protein lipid binding assay and ITC were performed. […]

A short description of series [3]: Protein-lipid binding assay with PKCβ protein C2 domain, PI(3,4,5)P3. The conditions noted are these: calcium 0, 0.05 or 0.1 mM. On the procedure:
as §2, §3

Series [4] in a line: ITC of PKCβ protein C2 domain with PI(3,4,5)P3 liposome. It is filed as binding. On the procedure:
as §1
In the meantime, in ITC, the phospholipid related ligand was prepared in the form of liposome by mixing POPC chloroform solution and PI(3,4,5)P3 at the molar ratio of 80:20. Then, ITC was performed by the same manner under the same conditions as described in Example <7-3> except that the PKCβ protein C2 domain or D187/193A, the C2 domain mutant, was used.

In another series the test system is CHO cells. Description: Migration of mCherry-tagged PH or C2 domain to the cell membrane, fluorescence microscopy. It is filed as cell-based. From the text: First, the PH domain of Akt1 protein or C2 domain of PKCβ protein was obtained by PCR using the primers consisting of the nucleotide sequences represented by […]. The obtained PCR product was cloned in pmCherry-C1 vector (Takara Clontech, Japan) by the conventional cloning method. CHO cells were transfected with the prepared vector by using lipofectamine according to the manufacturer's protocol. The transfected cells were selected by using blastidicin. Then, mCherry positive cells were confirmed by flow cytometry.
PMA at the concentration of 100 nM, ionomycin at the concentration of 10 μM or insulin at the concentration of 100 nM was added to the cells expressing the PH domain of Akt1 protein or the C2 domain of PKCβ protein and the location of the expressed protein was confirmed by fluorescence microscopy.

For series [5], the system named is Akt protein. Description: Western blotting of Akt protein phosphorylation in insulin-treated HepG2 cells. The class given is cell-based, human. The conditions noted are these: verapamil 0, 5, 10 or 100 nM, with or without insulin. On the procedure: First, male C57BL/6 mice at 8 weeks were divided into the fasted group wherein the mice were fasted for 16 hours and the refed group wherein the mice were fasted for 16 hours and then fed for 4 hours. Each group was sub-divided into the high fat diet group (HFD) and the normal diet group (chow). The liver cells were extracted from the raised mice by the same manner and under the same conditions as described in Example 1. The extracted liver cells were lysed in a lysis buffer containing phosphatase (Sigma-Aldrich, USA) and protease inhibitor (Sigma-Aldrich, USA). Proteins extracted from 2 to 3 mg of the liver tissue were homogenized by using a tissue homogenizer (TissuLyser, Qiagen, USA) for 1.5 minutes at a frequency of 1/30 sec. The homogenized lysate was centrifuged at 12,000 rpm for 15 minutes and the supernatant was obtained. The amount of the extracted protein was quantified by using a protein assay kit (Bio-Rad Laboratories, USA), and at this time BSA was used as a standard sample. 3 mg of the protein was mixed with 6× loading buffer, followed by electrophoresis using 10% SDS-PAGE gel. The electrophoresed protein was transferred onto a polyvinylidene fluoride (PVDF) membrane by using a transfer buffer at 4° C. with 120 V for 1.5 hours. The PVDF membrane on which the protein was transferred was pretreated with a blocking buffer prepared by mixing 5% skim milk with TBS buffer (TBS-T, pH 7.6) supplemented with Tween 20 for 30 minutes, and the membrane was washed with TBS-T. The washed membrane was added with the antibody against Akt (Cell Signaling Technology, USA), Akt(T308) (Cell Signaling Technology, USA), Akt(S473) (Cell Signaling Technology, USA), FOXO3A (Cell Signaling Technology, USA), FOXO3A(S253) (Cell Signaling Technology, USA), GSK-3β (Cell Signaling Technology, USA) or GSK-3β(S9) (Cell Signaling Technology, USA) protein as a primary antibody, followed by reaction at 4° C. for 12 hours. At this time, the antibody against actin (Santa Cruz Biotechnology, USA) protein was used for the control group. Upon completion of the reaction, the secondary antibody corresponding to the primary antibody was added thereto, followed by reaction at room temperature for 30 minutes. The PVDF membrane was washed with TBS-T buffer three times. The washed PVDF membrane was added with ECL solution (Thermo Scientific, USA), followed by image observation.
To investigate the changes in insulin sensitivity when insulin was added to the fatty liver cell model constructed in vitro, the phosphorylations of those proteins that were involved in insulin signal transduction were examined. PA was added to the human HepG2 cells prepared in Example 3, followed by reaction for 24 hours. […]

Series [6] deals with cells having an increased intracellular calcium concentration. Description: Calcium concentration in cells having an increased intracellular calcium concentration. It is filed as cell-based. The conditions noted are these: cells having an increased intracellular calcium concentration treated with verapamil.
The test system of series [7] is Akt protein. Description: Western blot of Akt activation in HepG2 cells transfected with C2-Akt fusion protein or wild type Akt and PI3K. It is filed as cell-based, human. The conditions noted are these: increase of calcium concentration (PMA 0, 10, 50 or 100 nM, ionomycin 20 μM, 1 hour). From the text: First, the C2 domain of PKCβ protein and Akt protein (SEQ. ID. NO: 15) were obtained by PCR using the primers consisting of the nucleotide sequences represented by SEQ. ID. NO: 9˜SEQ. ID. The obtained PCR product was cloned in pEGFP-C2 vector by the conventional cloning method, resulting in the construction of a vector expressing the C2 domain/Akt protein fusion protein (SEQ. ID. NO: 17) (C2-Akt fusion protein). At this time, as the control group, a vector expressing the wild type Akt protein containing the PH domain was prepared.
HepG2 cells were transfected with the vector expressing the C2-Akt fusion protein constructed above along with the vector expressing PI3K protein by using lipofectamine according to the manufacturer's protocol. The transfected cells were treated with PMA at the concentration of 0, 10, 50 or 100 nM ionomycin at the concentration of 20 μM, followed by reaction for 1 hour. Western blot analysis was performed with the cells above. […]

“Also recorded” adds a separate entry of the source.

T1 sequence (P31749 1-144): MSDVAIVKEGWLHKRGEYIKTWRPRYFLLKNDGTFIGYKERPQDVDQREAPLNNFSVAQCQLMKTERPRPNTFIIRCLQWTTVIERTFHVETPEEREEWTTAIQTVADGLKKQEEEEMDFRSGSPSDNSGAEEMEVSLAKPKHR
T2 sequence (P31749 1-144): as above

For `[Ca+2]` [calcium], the “binding of PH domain of Akt protein to PI(3,4)P2 or PI(3,4,5)P3” value on PH domain of Akt protein is reported as “inhibited”. For the same compound, in series [1], the “binding of PH domain of Akt protein to PI(3,4)P2, PI(4,5)P2, PI(3,4,5)P3 or PS” value is recorded as “inhibited”.

Consider “C2 domain of PKCβ protein: C2 domain of PKCβ protein (SEQ. ID. NO: 14)”, for which the “binding to PI(4,5)P2” value in series [2] was “strongly bound; also recorded: promoted”. The “binding to PI(3,4,5)P3” value in series [3] is given as “strongly bound; also recorded: promoted”; in [4] (absence of calcium) it was “not induced”; in [4] (increased calcium concentration), “combined”; in series [4] (increased calcium concentration, listed as PKCβ protein C2 domain) it was “strongly bound”. For the same compound, the “migration to the cell membrane” value in the series on CHO cells (addition of insulin 100 nM) is given as “did not migrate”; in the series with CHO cells (increased intracellular calcium concentration (PMA 100 nM, ionomycin 10 μM)), “migrated; also recorded: promoted”.

Regarding `COc1ccc(CCN(C)CCCC(C#N)(c2ccc(OC)c(OC)c2)C(C)C)cc1OC` (stereo not drawn) [verapamil], the “phosphorylation of Akt protein” value with Akt protein [5] is “increased”. The increased calcium concentration result in series [6] is “inhibited; also recorded: reduced”.

With “wild type Akt protein: wild type Akt protein containing the PH domain, control”, the “Akt protein activation by PI3K” value with Akt protein [7] is recorded as “inhibited”.

Source of the values: patent US11726082B2, “Screening method of drug candidates for treating disease using interaction between calcium and phosphatidylinositol phosphate” (Gachon University of Industry—Academic Cooperation …, priority 2017, dated 2023).
